Data reported in patent US20070129403A1, “METHOD OF TREATING SCHIZOPHRENIA AND/OR GLUCOREGULATORY ABNORMALITIES” (AVENTIS PHARMACEUTICALS INC., priority 2004, published 2007).
“And” between values parts separate entries of the source, which are not always exact repeats. Identical values can stand only once.

Tests used:
[1] = system: release of norepinephrine, acetylcholine and serotonin; settings: dependence on added calcium; Smith et al, 1993; 1996; cited from earlier work
[2] = molecular target: T1, voltage-gated potassium channels in hamster HIT-T15 insulinoma cells (Mesocricetus auratus, UniProt A0A3Q0CYQ2); assay: Whole-cell patch clamp, voltage-gated potassium currents in HIT-T15 insulinoma cells; assay type: cell-based, Syrian Hamster; settings: for Voltage-Gated Potassium Current (% Control), Average: average of cells; for Voltage-Gated Potassium Current (% Control), single cells: individual cells #1-#5
T1 construct: endogenous in cells; host or cells: HIT-T15 (Syrian hamster insulinoma)
T1 sequence (A0A3Q0CYQ2 1-857): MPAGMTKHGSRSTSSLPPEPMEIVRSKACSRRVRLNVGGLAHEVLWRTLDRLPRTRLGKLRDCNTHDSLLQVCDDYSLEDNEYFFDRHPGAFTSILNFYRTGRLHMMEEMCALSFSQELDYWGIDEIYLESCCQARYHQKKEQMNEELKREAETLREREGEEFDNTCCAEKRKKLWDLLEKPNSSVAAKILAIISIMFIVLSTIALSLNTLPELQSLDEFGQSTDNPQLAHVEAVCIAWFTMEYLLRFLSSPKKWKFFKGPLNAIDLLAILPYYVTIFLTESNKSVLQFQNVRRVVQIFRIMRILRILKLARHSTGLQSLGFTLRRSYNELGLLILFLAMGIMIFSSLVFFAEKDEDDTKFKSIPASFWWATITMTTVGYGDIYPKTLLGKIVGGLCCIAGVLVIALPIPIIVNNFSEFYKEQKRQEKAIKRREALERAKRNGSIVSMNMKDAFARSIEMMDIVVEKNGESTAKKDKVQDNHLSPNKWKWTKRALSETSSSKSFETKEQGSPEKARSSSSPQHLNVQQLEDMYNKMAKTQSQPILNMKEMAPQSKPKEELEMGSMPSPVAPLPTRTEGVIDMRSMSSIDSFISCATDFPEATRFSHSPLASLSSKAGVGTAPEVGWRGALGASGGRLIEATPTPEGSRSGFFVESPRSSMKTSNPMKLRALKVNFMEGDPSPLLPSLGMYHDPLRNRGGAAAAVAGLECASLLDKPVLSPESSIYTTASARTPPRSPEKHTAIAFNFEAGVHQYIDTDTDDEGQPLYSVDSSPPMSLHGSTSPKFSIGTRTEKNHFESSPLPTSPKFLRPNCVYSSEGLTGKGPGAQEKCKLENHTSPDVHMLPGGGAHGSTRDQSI
Protocol: The purpose of this in vitro study was to evaluate the effects of HP184 on voltage-gated potassium channels in hamster HIT-T15 insulinoma cells using the whole-cell patch-clamping technique.
HIT-T15 cells (from Syrian Hamster pancreas) expressing voltage-gated potassium channels were grown in RPMI media supplemented with 10% fetal bovine serum and 1×penicillin/streptomycin in an atmosphere of 95% air/5% CO2. Cells used for patch-clamping were seeded on glass or plastic coverslips 12-36 hours before use. Currents were recorded at room temperature using the whole-cell configuration of the patch clamp technique with an Axopatch 200B amplifier (Axon Instruments, Foster City, Calif.). Briefly, electrodes (3-6 MΩ resistance) were fashioned from TW150F glass capillary tubes (World Precision Instruments Sarasota, Fla.) and filled with pipette solution (in mM: potassium aspartate 120; KCl 20; Na2ATP 4; HEPES 5; MgCl2 1; pH 7.2 adjusted with KOH). Currents were initiated by a 300-ms positive voltage pulse (20 mV) followed by a 50-ms negative pulse (−100 mV) and were recorded for off-line analyses. Once current from a cell perfused with control external solution (in mM: NaCl 130; KCl 5; sodium acetate 2.8; MgCl2 1; HEPES, 10; glucose 10; CaCl2 1 at pH7.4 adjusted with NaOH) was stabilized, the cell was perfused with external solution containing 1 μM HP184 (batch: R.C.4.53.3; molecular weight: 320.5; diluted from a 50 mM stock solution in DMSO prepared daily; the DMSO final concentration in all drug solutions was not more than 0.06%). Currents were continuously recorded until they reached steady-state condition. The same procedure was performed with increasing concentrations of HP184 (3, 10 and 30 μM, sequentially). For each concentration from each cell, the steady-state current at the end of the 20-mV activation pulse was measured in pico Ampere (pA).
The amplitude in pA for each concentration was compared with that for the control solution from the same cell and expressed as percent control (% control).

[3] = molecular target: T2, cloned human Kv2.1 potassium channels (Homo sapiens, UniProt Q14721); assay: Whole-cell patch clamp, cloned human Kv2.1 channels expressed in U-373MG cells; assay type: cell-based; settings: for Kv 2.1 Current (% Control), Average: average of cells; for Kv 2.1 Current (% Control), single cells: individual cells
T2 construct: expressed in transfected cells; host or cells: U-373MG (G418 selection)
T2 sequence (Q14721 1-858): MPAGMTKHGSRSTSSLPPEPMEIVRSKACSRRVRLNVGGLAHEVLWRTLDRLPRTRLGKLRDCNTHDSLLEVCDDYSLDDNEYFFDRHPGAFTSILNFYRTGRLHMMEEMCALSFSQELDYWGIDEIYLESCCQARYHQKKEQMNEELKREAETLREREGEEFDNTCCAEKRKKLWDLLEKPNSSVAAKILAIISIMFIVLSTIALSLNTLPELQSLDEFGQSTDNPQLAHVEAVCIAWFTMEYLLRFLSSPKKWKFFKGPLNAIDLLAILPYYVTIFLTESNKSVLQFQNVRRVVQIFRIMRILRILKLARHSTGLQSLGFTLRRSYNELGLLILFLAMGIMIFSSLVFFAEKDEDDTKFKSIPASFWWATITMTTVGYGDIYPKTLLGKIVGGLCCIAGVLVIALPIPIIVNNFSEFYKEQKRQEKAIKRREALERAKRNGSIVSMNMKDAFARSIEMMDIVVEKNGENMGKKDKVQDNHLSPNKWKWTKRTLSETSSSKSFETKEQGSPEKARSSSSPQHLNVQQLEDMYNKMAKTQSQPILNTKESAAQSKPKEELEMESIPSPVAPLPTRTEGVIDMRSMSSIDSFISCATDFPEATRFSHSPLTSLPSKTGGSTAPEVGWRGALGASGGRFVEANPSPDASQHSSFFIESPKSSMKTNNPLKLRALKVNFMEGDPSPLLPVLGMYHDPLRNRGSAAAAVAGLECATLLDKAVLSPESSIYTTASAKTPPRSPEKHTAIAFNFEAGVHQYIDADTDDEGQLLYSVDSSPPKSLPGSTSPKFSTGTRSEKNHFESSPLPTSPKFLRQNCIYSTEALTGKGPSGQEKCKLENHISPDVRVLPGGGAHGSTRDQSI
Protocol: The purpose of this in vitro study was to evaluate the effects of HP184 on cloned human Kv2.1 potassium channels expressed in U-373MG cells using the whole-cell patch-clamping technique.
U-373MG cells expressing the human Kv2.1 channels were grown in DMEM media supplemented with 10% fetal bovine serum, 1×penicillin/streptomycin and […], G418 (Invitrogen, Carlsbad, Calif.) in an atmosphere of 95% air/5% CO2. Cells used for patch-clamping were seeded on glass or plastic coverslips 12-36 hours before use. Kv2.1 Currents were recorded at room temperature using the whole-cell configuration of the patch clamp technique with an Axopatch 200B amplifier (Axon Instruments, Foster City, Calif.). Briefly, electrodes (2-4 MΩ resistance) were fashioned from TW150F glass capillary tubes (World Precision Instruments, Sarasota, Fla.) and filled with pipette solution (in mM: potassium aspartate 120; KCl 20; Na2ATP 4; HEPES 5; MgCl2 1; pH 7.2 adjusted with KOH). For dose-dependently, currents were initiated by a 300-ms positive voltage pulse (20 mV) followed by a 50-ms negative pulse (−100 mV) and were recorded for off-line analyses. Once current from a cell perfused with control external solution (in mM: NaCl 130; KCl 5; sodium acetate 2.8; MgCl2 1; HEPES, 10; glucose 10; CaCl2 1 at pH7.4 adjusted with NaOH) was stabilized, the cell was perfused with external solution containing 1 μM HP184 (batch: R.C.4.53.3; molecular weight: 320.5; diluted from a 50 mM stock solution in DMSO; the DMSO final concentration in all drug solutions was not more than 0.06%). Currents were continuously recorded until they reached steady-state condition. The same procedure was performed with increasing concentrations of HP184 (3, 10 and 30 μM, sequentially). For each concentration from each cell, the steady-state current at the end of the 20-mV activation pulse was measured in pico Ampere (pA). The amplitude in pA for each concentration was compared with that for the control solution from the same cell and expressed as percent control (% control).

Row | Compound | Release of norepinephrine, acetylcholine and serotonin from rat brain slices (in words) [1] | Voltage-Gated Potassium Current (% Control), Average ([2]; 1 μM) | Voltage-Gated Potassium Current (% Control), single cells ([2]; 1 μM) | Voltage-Gated Potassium Current (% Control), Average ([2]; 3 μM) | Voltage-Gated Potassium Current (% Control), single cells ([2]; 3 μM) | Voltage-Gated Potassium Current (% Control), Average ([2]; 10 μM) | Voltage-Gated Potassium Current (% Control), single cells ([2]; 10 μM) | Voltage-Gated Potassium Current (% Control), Average ([2]; 30 μM) | Voltage-Gated Potassium Current (% Control), single cells ([2]; 30 μM) | IC50 ([2]; HIT-T15 cells, steady-state current at end of 20-mV pulse, read-out: IC50, block of voltage-gated potassium currents) | Kv 2.1 Current (% Control), Average ([3]; 1 μM) | Kv 2.1 Current (% Control), single cells ([3]; 1 μM) | Kv 2.1 Current (% Control), Average ([3]; 3 μM) | Kv 2.1 Current (% Control), single cells ([3]; 3 μM) | Kv 2.1 Current (% Control), Average ([3]; 10 μM) | Kv 2.1 Current (% Control), single cells ([3]; 10 μM) | Kv 2.1 Current (% Control), Average ([3]; 30 μM) | Kv 2.1 Current (% Control), single cells ([3]; 30 μM) | IC50 ([3]; U-373MG cells expressing human Kv2.1, read-out: IC50, block of Kv2.1 current)
1 | Nc1ccncc1 [4-AP, 4-aminopyridine] | dependent on added calcium | – | – | – | – | – | – | – | – | – | – | – | – | – | – | – | – | – | –
2 | CCCN(c1ccncc1F)n1cc(C)c2ccccc21 [HP184, N-(3-fluoro-4-pyridinyl)-N-propyl-3-methyl-1H-indole-1-amine] | – | 85.7 % Control | 95.1 % Control and 84.7 % Control and 80.9 % Control and 85.4 % Control and 82.6 % Control | 62.5 % Control | 86.4 % Control and 61.5 % Control and 46.4 % Control and 58.8 % Control and 59.3 % Control | 17.2 % Control | 34.0 % Control and 9.1 % Control and 12.6 % Control (2×) and 17.8 % Control | 1.4 % Control | 2.6 % Control and 0.8 % Control and 0.9 % Control and 1.2 % Control | 3.9 µM | 91.7 % Control | 98 % Control and 91.0 % Control and 89.2 % Control and 91.6 % Control and 95.0 % Control and 90.5 % Control (2×) and 94.5 % Control and 83.6 % Control and 91.8 % Control and 95.5 % Control | 72.3 % Control | 93.0 % Control and 63.1 % Control and 69.6 % Control and 62.9 % Control and 68.5 % Control and 70.8 % Control and 87.5 % Control and 86.1 % Control and 88.5 % Control and 79.9 % Control and 89.7 % Control | 28.3 % Control | 58.2 % Control and 19.9 % Control and 37.7 % Control and 24.4 % Control and 17.1 % Control and 38.5 % Control and 43.8 % Control and 13.1 % Control and 19.1 % Control and 12.5 % Control | 10.4 % Control | 22.1 % Control and 13.7 % Control (2×) and 16.2 % Control and 6.7 % Control and 1.4 % Control and 12.8 % Control and 4.8 % Control (2×) and 8.7 % Control | 5.6 µM
